Test results as given in patent US8735569B2, “Nucleoside phosphoramidates” (Gilead Pharmasset LLC, priority 2009, dated 2014).
Converted amounts (≈) assume the structure as drawn.

Experiments:
HCV replication = test: HCV replicon assay (firefly luciferase reporter); format: cell-based, hepatitis C virus; details: replicon containing cells, 4 days incubation, Bright-Glo firefly luciferase reporter
Description: Replicon containing cells were seeded at either 3,000 cells/well (50 μL) in 96-well white/opaque plates, or 1,500 cells/well (25 μL) in 384-well white/opaque plates. 50 μL of 2× compound were added in the 96 well plate or 25 μL of 2× compound were added in the 384 well plate. The plates were incubated at 37° C. in a humidified 5% CO2 atmosphere for 4 days. After incubation, Bright-Glo reagent (50 μL for 96-well plate, or 25 μL for 384-well plate) was added to measure the firefly luciferase reporter for HCV replication. Percent inhibition was calculated against the no drug control.

[1] = Thermodynamic aqueous solubility; format: physicochemical; details: for pH of Unfiltered mixture: aqueous suspension after 24 hours at 25° C.; for solubility at 24 h / Solubility: water; for solubility at 24 h: 25 °C, thermodynamic from solid, summary of batch characterization (Table 16), read-out: Aq Solubility; for Solubility: equilibrated at 25° C. for 24 hours, HPLC quantitation
Description: Aqueous solubility was determined by suspending a sufficient amount of compound in water to give a maximum final concentration of >10 mg·ml^−1 of the parent free-form of the compound. The suspension was equilibrated at 25° C. for 24 hours then the pH was measured. The suspension was then filtered through a glass fiber C filter into a 96 well plate. The filtrate was then diluted by a factor of 101. Quantitation was by HPLC with reference to a standard solution of approximately 0.1 mg·ml^−1 in DMSO. Different volumes of the standard, diluted and undiluted sample solutions were injected. The solubility was calculated using the peak areas determined by integration of the peak found at the same retention time as the principal peak in the standard injection.
Analysis was performed under the above-noted conditions on an Agilent HP1100 series system equipped with a diode array detector and using ChemStation software vB.02.01-SR1.

[2] = Gravimetric vapour sorption (GVS); format: physicochemical; details: 25° C.
Description: Sorption isotherms were obtained using a SMS DVS Intrinsic moisture sorption analyzer, controlled by SMS Analysis Suite software. The sample temperature was maintained at 25° C. by the instrument controls. The humidity was controlled by mixing streams of dry and wet nitrogen, with a total flow rate of 200 ml·min^−1. The relative humidity was measured by a calibrated Rotronic probe (dynamic range of 1.0-100% RH), located near the sample. The weight change, (mass relaxation) of the sample as a function of % RH was constantly monitored by the microbalance (accuracy ±0.005 mg).
Typically 5-20 mg of sample was placed in a tared mesh stainless steel basket under ambient conditions. The sample was loaded and unloaded at 40% RH and 25° C. (typical room conditions). A moisture sorption isotherm was performed as outlined below (2 scans giving 1 complete cycle). The standard isotherm was performed at 25° C. at 10% RH intervals over a 0.5-90% RH range.
The sample was recovered after completion of the isotherm and re-analyzed by XRPD.
A sample of SP-4 was ground with a pestle and mortar, and then successively passed through 500 and 250 μm sieves to yield the sample as a fine powder that was then analyzed using a modified single cycle method. The sample was taken from 40% RH (approximately ambient) to 60% RH, instead of 90% for the standard method, and then cycled to 0% and back to 40% RH.

[3] = test system: hepatitis C virus, genotypes 1-4; test: Genotype coverage
[4] = Stability at elevated temperatures and relative humidity; format: physicochemical
Description: A sample of RP-4 was stored in a humidity chamber at 40° C. and 75% relative humidity for one week, and the sample was reanalyzed by XRPD. […] This should be contrasted to a sample of 4, which deliquesced within about 16 hours upon storage at 40° C. and 75% relative humidity. Indeed, an illustration of the deliquescent nature of 4 is illustrated by the following. A sample of 4 was passed through a 250 μm sieve then samples were stored at 40° C./75% RH and 25° C./53% relative humidity and visual observations were taken at regular intervals.
Upon storage at 40° C. and 75% relative humidity a sample of SP-4 deliquesced inside 16 hours. For instance, a sample of SP-4 was ground with a pestle and mortar, and then successively passed through 500 and 250 μm sieves to yield the sample as a fine powder. Samples of this material were stored at 40° C. and 75% relative humidity and 25° C. and 53% RH and visual observations were taken at regular intervals.

[5] = Storage stability of crystalline form in a sealed container; format: physicochemical
From the text: First, by allowing fine crystals of Form 1 to be exposed to atmospheric humidity for several days, a monohydrate of Form 1 is produced with an appearance of a solidified gum. After grinding the monohydrate solid to a fine powder, the XRPD pattern remains consistent with Form 1. Upon standing in an open vessel for 6-10 weeks, the ground material slowly changes to Form 6 as an anhydrous solid. Form 1 is stable for at least 2 years in a sealed container.

[6] = summary of batch characterization (Table 16)

Structure (SMILES)	HCV Replicon Activity (HCV replication)	pH of Unfiltered mixture [1]	solubility at 24 h [1]	Solubility [1]	hygroscopicity by GVS analysis [2]	reversible uptake of water ([2]; from 0 to 90% relative humidity)	activity against hepatitis C virus, genotypes 1-4 (broad genotype coverage) [3]	change in solid form by XRPD after storage ([4]; 40° C. and 75% relative humidity for one week)	40° C./75% RH (stability summary) [4, 6]	time to deliquescence upon storage ([4]; 40° C. and 75% relative humidity)	25° C./53% RH (stability summary) [4, 6]	stable in a sealed container [5]	visual observation (stability to elevated relative humidity) ([4]; 40° C./75% RH, t = 4.5 h)
CC(C)OC(=O)[C@H](C)N[P@@](=O)(OC[C@H]1O[C@@H](n2ccc(=O)[nH]c2=O)[C@](C)(F)[C@@H]1O)Oc1ccccc1 (single isomer, unassigned) [RP-4]	2.87 µM	7.12	1580 µg/mL (≈ 2.98 mM)	1.58 mg. m1^−1	non-hygroscopic	approximately 0.2 wt %	active	no change in solid form was observed	No form change				
CC(C)OC(=O)[C@H](C)NP(=O)(OC[C@H]1O[C@@H](n2ccc(=O)[nH]c2=O)[C@](C)(F)[C@@H]1O)Oc1ccccc1 (stereo partly drawn) [Compound 4, (S)-2-{[(1R,4R,5R)-5-(2,4-Dioxo-3,4-dihydro-2H-pyrimidin-1-yl)-4-(R)-fluoro-3-hydroxy-4-methyl-tetrahydro-furan-2-ylmethoxy]-phenoxy-phosphorylamino}-propionic acid isopropyl ester]	0.58 µM	7.03	6110 µg/mL (≈ 11.5 mM)	6.11 mg. m1^−1						≤ 16 h	Deliquescence		
CC(C)OC(=O)[C@H](C)N[P@](=O)(OC[C@H]1O[C@@H](n2ccc(=O)[nH]c2=O)[C@](C)(F)[C@@H]1O)Oc1ccccc1 [Form 1]												at least 2 years	
CC(C)OC(=O)[C@H](C)N[P@](=O)(OC[C@H]1O[C@@H](n2ccc(=O)[nH]c2=O)[C@](C)(F)[C@@H]1O)Oc1ccccc1 [SP-4, (S)-Isopropyl 2-((S)-(((2R,3R,4R,5R)-5-(2,4-dioxo-3,4-dihydropyrimidin-1(2H)-yl)-4-fluoro-3-hydroxy-4-methyltetrahydrofuran-2-yl)methoxy)(phenoxy)phosphorylamino)propanoate]	0.13 µM		5650 µg/mL (≈ 10.7 mM)	5.65 mg. m1^−1			active				No form change		Deliquescence
